According to publication PMC6691761, “Potential multifunctional agents with anti-hepatoma and anti-inflammation properties by inhibiting NF-кB activation” (Journal of Enzyme Inhibition and Medicinal Chemistry, 2019):

Assays:
[1] = tested on: human lung carcinoma cells (A549); test: Cytotoxicity, MTT assay, A549; assay type: cell-based; details: for IC50: MTT, 24 h
How it was run: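 Following a day of attachment at 1 × 10^4 cells/well, compounds were applied for 24 h with vehicle fixed at 0.1% DMSO. Formazan signal at 570 nm gave percent viability versus untreated cells, from which triplicate-based IC50 values were obtained.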

[2] = tested on: TNF-α production in LPS-stimulated RAW264.7 cells; test: TNF-α production in LPS-stimulated RAW264.7 cells, ELISA; assay type: cell-based; details: BAPs 6.0 μM, PDTC 30 μM, LPS 1.0 μg/mL
Procedure: The anti-inflammatory activities of BAPs were evaluated by ELISA. After pretreated with 30 μM of positive drug pyrrolidinedithiocarbamate (PDTC) or 6 μM of BAPs for 2 h, cells were treated with LPS (1.0 μg/mL) for 22 h. The culture media were collected and centrifuged for detecting the expression levels of TNF-α by an ELISA kit (eBioScience, San Diego, CA).
TNF-α is a common pro-inflammatory factors that can be produced by LPS-stimulated RAW264.7 macrophage[14]^,[24]. In order to evaluate the anti-inflammatory activity of BAPs, the effect of BAPs on TNF-α production in LPS-stimulated RAW264.7 cells was detected by ELISA. […] Only 92 presented slightly lower expression of TNF-α secretion (about 57%).

[3] = tested on: C-caspase-3 expression in HepG2 cells; test: Western blot, C-caspase-3 expression in HepG2 cells; assay type: cell-based, human; details: HepG2, 1.0, 2.0, and 4.0 μM
Procedure: The HepG2 cells were treated with BAP 96 at different concentrations (1.0, 2.0, and 4.0 µM) for 3 h, and washed twice by PBS. The cells were lysed and the extracted proteins of cell lysates were separated by 10% SDS-PAGE gel electrophoresis, then transferred onto polyvinylidene fluorides membranes. The membranes were probed with antibodies and visualized using an enhanced chemiluminescence (ECL) detection kit.

[4] = tested on: NF-κB p65 nuclear translocation in LPS-stimulated RAW264.7 cells; test: NF-κB p65 nuclear translocation, immunofluorescence, RAW264.7; assay type: cell-based; details: RAW264.7, LPS 1.0 μg/mL, 4.0 μM
Procedure: RAW264.7 cells were pretreated in 96-well plates with LPS (1 μg/mL) for 15 min and then treated with 96 for 2 h. Similarly, HepG2 cells were pretreated with TNF-α (10 ng/mL) for 15 min and then treated with 96 for 4 h. The cells were fixed with 2% paraformaldehyde for 15 min at 37 °C and permeabilized using 0.1% Triton X-100 for 10 min at RT. After blockage with 3% BSA for 30 min, the cells were incubated with anti-NF-κB p65 antibody (NOVUS BIOLOGICALS, Colorado, USA) at 4 °C overnight. After washing, the anti-mouse Alexa488-conjugated secondary antibody (Jackson Immuno Research, West Grove, PA) was incubated for 30 min at RT. After washed with PBS, the cells were incubated in 4-6-diamidino-2-phenyindole (DAPI; Sigma, St. Louis, MO) for 15 min in the dark at RT. The cell images were simultaneously viewed using a microscopy system in High Throughput Screen (Operetta, PerkinElmer, Waltham, MA).

[5] = tested on: Bcl-2 expression in HepG2 xenografts; test: Western blot, Bcl-2 in HepG2 xenografts; assay type: in vivo, Balb/c nude mice; details: 0.2, 1.0 and 5.0 mg/kg
Procedure: (§1) The HepG2 cells xenografts were established using the Balb/c nude mice (female, 7-week-old, 17–19 g, n = 30) (Shanghai Laboratory Animal Center, Shanghai Shi, China) were used to investigate the anti-hepatoma effect of 96. Animal experiments were reviewed and approved by the Binzhou Medical University Experimental Animal Committee. Briefly, HepG2 cells (1 × 10^7/0.2 ml PBS/mouse) were inoculated subcutaneously. Three days after the inoculation, the mice were randomly divided into five groups: the saline treated group (Control), 96 (0.2 mg/kg) group, 96 (1.0 mg/kg) treated group, 96 (5.0 mg/kg) treated group, and DOX (1.0 mg/kg) treated group. 96 were dissolved in saline containing 1% of DMSO and administered intraperitoneally every 2 d for 20 days. DOX was also administered intraperitoneally every 2 d for 20 d. The body weight and HepG2 xenografts volumes were recorded from the day of treatment, and xenografts volumes were calculated using the equation: tumour volume = length×(width)[2]×π/6. At the end of the experiment, mice were sacrificed and the xenografts were obtained for western blotting, HE staining and immunohistochemistry staining.
(§2) Western blotting was performed to detect the expression of Bcl-2, Bax and C-caspase-3 in HepG2 xenografts. Fresh HepG2 xenografts tissues were lysed and the obtained proteins were processed as the protein obtained from the HepG2 cells.

[6] = tested on: BAX expression in HepG2 xenografts; test: Western blot, BAX in HepG2 xenografts; assay type: in vivo, Balb/c nude mice; details: 0.2, 1.0 and 5.0 mg/kg
Procedure: as §1, §2

For `CN1CC(=Cc2cccc(N=Cc3cc(Br)ccc3O)c2)C(=O)C(=Cc2ccccc2F)C1` [Compound 96], the IC50 ([1]; Homo sapiens, A549, 24 h) was less than 2000 nM, the IC50 [1] was 1600 ± 400 nM and the “A549 SI (selectivity index)” value ([1]; quotient of IC50 towards LO2 cells) was 12.4. For the same compound, the “Inhibition of TNF-α secretion compared with PDTC (in words)” value [2] was “strongest inhibitory effect”, the TNF-α secretion [2] was 45% and the “Expression of C-caspase-3” value [3] was “dose-dependently increased”. For the same compound, the p65 nuclear translocation [4] was “prevented the p65 nuclear translocation”, the “Expression of Bcl-2 in HepG2 xenografts” value [5] was “dose-dependently decreased” and the “Expression of BAX in HepG2 xenografts” value [6] was “significantly increased in a dose-dependent manner”.
